Laboratory results reported in patent US5703239A, “Indanylpiperidines as melatonergic agents” (Bristol-Myers Squibb Company, priority 1996, dated 1997).

Tested on: human melatonin receptors
Experiment: not given
Conditions: result in words, luzindole, background section; cited from earlier work

Structure (SMILES) | binds to human melatonin receptors
CC(=O)NCCc1c(Cc2ccccc2)[nH]c2ccccc12 [Luzindole] | binds to human melatonin receptors

Molecular target: T1, human ML1B receptor (Homo sapiens, UniProt P49286)
T1 construct: expressed in transfected cells; host or cells: NIH 3T3 cells (stably transfected; obtained from S. M. Reppert)
T1 sequence (P49286 1-362): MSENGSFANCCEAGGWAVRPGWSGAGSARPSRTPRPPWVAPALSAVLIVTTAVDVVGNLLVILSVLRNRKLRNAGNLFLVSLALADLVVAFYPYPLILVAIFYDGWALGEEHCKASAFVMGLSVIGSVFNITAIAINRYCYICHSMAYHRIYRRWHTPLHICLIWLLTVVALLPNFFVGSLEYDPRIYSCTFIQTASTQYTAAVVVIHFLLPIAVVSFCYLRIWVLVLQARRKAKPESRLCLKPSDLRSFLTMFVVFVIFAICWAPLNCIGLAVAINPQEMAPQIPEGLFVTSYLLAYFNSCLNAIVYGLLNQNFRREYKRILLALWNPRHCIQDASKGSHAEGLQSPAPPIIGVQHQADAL
Experiment: Binding to human melatonergic receptors (2-[125I]-iodomelatonin, NIH 3T3 cell membranes, human ML1B receptor)
Conditions: IC50 class; 200 pM 2-[125I]-iodomelatonin, 37° C., 1 hour, membranes of NIH 3T3 cells transfected with human ML1B receptor; read-out: Melatonin Binding
Method: Measurement of Binding to Human Melatonergic Receptors The melatonergic binding affinities of various compounds of Formula I were determined by the method of Reppert, S. M., Weaver, D. R., and Ebisawa, R. (Neuron, Volume 13, 1177-1185, 1994). The assays were incubated at 37° C. for 1 hour, and the reaction was terminated by filtration. The filters were washed with wash buffer. […] The reagents, membrane and other techniques used in the melatonergic binding assays are more fully described below: […] Reagents: (a) 50 mM Tris buffer containing 12.5 mM MgCl2, and 2 mM EDTA, pH 7.4 at 37° C. (b) Wash buffer: 20 mM Tris base containing 2 mM MgCl2. pH 7.4 at room temperature. (c) Melatonin (10^-5 M final concentration). (d) 2-[^125 I]-Iodomelatonin, 200 pM final concentration Source: NEN 2. Membrane preparation: NIH 3T3 cells stably transfected with the human ML1B receptor were obtained from S. M. Reppert and maintained. Cells were pelleted when confluent. The supernatant was discarded and the pellets frozen. For preparing membrane homogenates, the pellets are thawed on ice and resuspended in TME buffer, Tris base, MgCl2, EDTA (pH 7.4 at 37° C.), supplemented with aprotinin, leupeptin, and […]. The cells were then homogenized and centrifuged. The resulting pellet was resuspended with a Dounce homogenizer in TME and frozen. At assay, a small aliquot was thawed on ice and resuspended in TME buffer.

Structure (SMILES) | IC50 [nM]
O=C(C1CC1)N1CCC(C2CCc3ccc(F)cc32)CC1 (stereo not drawn) [1-(Cyclopropylcarbonyl)-4-(6-fluoro-indan-1-yl)piperidine] | < 10
COc1ccc2c(c1)C(C1CCN(C(=O)c3cccn3C)CC1)CC2 (stereo not drawn) [4-(6-Methoxy-indan-1-yl)-1-[(1-methyl-pyrrol-2-yl)carbonyl]piperidine] | < 10
COc1ccc2c(c1)C(C1CCN(C(=O)C(C)C)CC1)CC2 (stereo not drawn) [4-(6-methoxy-indan-1-yl)-1-(2-methylpropanoyl)piperidine] | < 10
CC(=O)NCCc1c(Cc2ccccc2)[nH]c2ccccc12 [Luzindole] | 100 to 250
O=C(C1CC1)N1CCC(C2CCc3ccc(O)cc32)CC1 (stereo not drawn) [N-(Cyclopropylcarbonyl)-4-(6-hydroxy-indan-1-yl)piperidine] | 10 to 100
COc1ccc2c(c1)C(C1CCN(C(=O)c3ccc(C)s3)CC1)CC2 (stereo not drawn) [4-(6-methoxy-indan-1-yl)-1-[(5-methyl-thien-2-yl)carbonyl]piperidine] | 10 to 100
COc1ccc2c(c1)C(C1CCN(C=O)CC1)CC2 (single isomer, unassigned; (+)) [(+)-1-Formyl-4-(6-methoxy-indan-1-yl)piperidine] | 10 to 100
COCC(=O)N1CCC(C2CCc3ccc(OC)cc32)CC1 (single isomer, unassigned; (-)) [(-)-4-(6-Methoxy-indan-1-yl)-1-(2-methoxyacetyl)piperidine] | < 10
COc1ccc2c(c1)C(C1CCN(C=O)CC1)CC2 (stereo not drawn) [1-Formyl-4-(6-methoxy-indan-1-yl)piperidine] | < 10
COc1ccc2c(c1)C(C1CCN(C(=O)c3occc3C)CC1)CC2 (stereo not drawn) [4-(6-Methoxy-indan-1-yl)-1-[(3-methyl-furan-2-yl)carbonyl]piperidine] | < 10
COc1ccc2c(c1)C(C1CCN(C(=O)C(C)C)CC1)CC2 (single isomer, unassigned; (+)) [(+)-4-(6-Methoxy-indan-1-yl)-1-(2-methylpropanoyl)piperidine] | 10 to 100
CCCCC(=O)N1CCC(C2CCc3ccc(OC)cc32)CC1 (single isomer, unassigned; (-)) [(-)-4-(6-Methoxy-indan-1-yl)-1-pentanoylpiperidine] | < 10
COc1ccc2c(c1)C(C1CCN(C(=O)c3ccoc3)CC1)CC2 (stereo not drawn) [1-[(3-Furanyl)carbonyl]4-(6-methoxy-indan-1-yl)-piperidine] | < 10
COc1cc2c(cc1F)CCC2C1CCN(C(=O)C(C)C)CC1 (stereo not drawn) [4-(5-Fluoro-6-methoxy-indan-1-yl)1-(2-methylpropanoyl)piperidine] | < 10
CCC(C)(C)C(=O)N1CCC(C2CCc3ccc(OC)cc32)CC1 (stereo not drawn) [1-(2,2-Dimethyl-butanoyl)-4-(6-methoxy-indan-1-yl)piperidine] | 10 to 100

More lines, now with the values ahead:

IC50 [nM] | Structure (SMILES)
< 10 | CNC(=O)N1CCC(C2CCc3ccc(OC)cc32)CC1 (stereo not drawn) [N-Methyl-4-(6-methoxy-indan-1-yl)piperidine-1-carboxamide]
< 10 | COc1ccc2c(c1)C(C1CCN(C(C)=O)CC1)CC2 (single isomer, unassigned; (-)) [(-)-1-Acetyl-4-(6-methoxy-indan-1-yl)piperidine]
< 10 | CNC(=O)N1CCC(C2CCc3ccccc32)CC1 (stereo not drawn) [N-Methyl-4-(indan-1-yl)-piperidine-1-carboxamide]
< 10 | CCC(=O)N1CCC(C2CCc3ccc(OC)cc32)CC1 (single isomer, unassigned; (-)) [(-)-4-(6-Methoxy-indan-1-yl)-1-propanoylpiperidine]
10 to 100 | CCNC(=O)N1CCC(C2CCc3ccc(OC(F)(F)F)cc32)CC1 (stereo not drawn) [N-Ethyl-4-[6-(trifluoromethoxy)-indan-1-yl]piperidine-1-carboxamide]
< 10 | O=C(C1CC1)N1CCC(C2CCc3ccccc32)CC1 (stereo not drawn) [1-(Cyclopropylcarbonyl)-4-(indan-1-yl)piperidine]
< 10 | CCNC(=O)N1CCC(C2CCc3ccc(CC)cc32)CC1 (stereo not drawn) [N-Ethyl-4-(6-ethyl-indan-1-yl)piperidine-1-carboxamide]
< 10 | CCNC(=O)N1CCC(C2CCc3ccc(OC)cc32)CC1 (stereo not drawn) [N-Ethyl-4-(6-methoxy-indan-1-yl)piperidine-1-carboxamide]
< 10 | CNC(=O)N1CCC(C2CCc3cc(F)c(OC)cc32)CC1 (stereo not drawn) [N-Methyl-4-(5-fluoro-6-methoxy-indan-1-yl)piperidine-1-carboxamide]
10 to 100 | CNC(=O)N1CCC(C2CCc3ccc(OC)cc32)CC1 (single isomer, unassigned; (+)) [(+)-N-Methyl-4-(6-methoxy-indan-1-yl)piperidine-1-carboxamide]

Tested on: not given
Experiment: not given
Conditions: literature: Dubocovich et al, European Journal of Pharmacology, 182, (1990), pages 313-325; cited from earlier work

Structure (SMILES) | antidepressant-like effects
CC(=O)NCCc1c(Cc2ccccc2)[nH]c2ccccc12 [Luzindole] | exhibits antidepressant-like effects
